# pIC50: −log10 of the molar value. *1 amine or outer side, *2 acyl side, *3 side chain or, on linkers, in order; H or OH if unused. Where a SMILES comes first, the peptide text is derived from it. Bridges are numbered along the chain shown (N, C = ends). [ ]: non-standard residue; d: D form. The star is where a group is joined. Abu(4-yl) = O=C([C@H](CC[*:3])N[*:1])[*:2]; AEF = NCCOc1ccc(C[C@H](N)C(=O)O)cc1; Palmitoyl = CCCCCCCCCCCCCCCC(=O)*; αMeK = C[C@](N)(CCCCN)C(=O)O; Dap = NC[C@H](N)C(=O)O; OBn = c1ccc(CO*)cc1
# Target: T1, Interleukin-23 receptor (Homo sapiens, UniProt Q5VWK5)
# T1 sequence (Q5VWK5 whole entry): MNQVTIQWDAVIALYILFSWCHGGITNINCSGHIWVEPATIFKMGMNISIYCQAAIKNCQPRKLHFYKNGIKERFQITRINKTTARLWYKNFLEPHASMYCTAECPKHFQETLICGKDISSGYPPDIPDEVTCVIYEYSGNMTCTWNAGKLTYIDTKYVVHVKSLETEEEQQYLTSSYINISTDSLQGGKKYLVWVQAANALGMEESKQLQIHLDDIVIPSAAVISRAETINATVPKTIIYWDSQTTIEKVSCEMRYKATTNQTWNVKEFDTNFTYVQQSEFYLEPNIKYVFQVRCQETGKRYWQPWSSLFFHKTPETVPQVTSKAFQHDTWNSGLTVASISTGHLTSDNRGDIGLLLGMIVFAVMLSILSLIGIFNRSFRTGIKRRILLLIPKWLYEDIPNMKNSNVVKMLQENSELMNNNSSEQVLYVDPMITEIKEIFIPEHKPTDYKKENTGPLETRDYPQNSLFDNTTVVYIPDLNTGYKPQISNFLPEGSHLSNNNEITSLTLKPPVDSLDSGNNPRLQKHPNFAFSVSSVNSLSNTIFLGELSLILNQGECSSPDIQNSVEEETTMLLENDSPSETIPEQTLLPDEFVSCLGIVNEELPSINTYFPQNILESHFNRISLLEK
# Assay: Inhibition of interleukin-23 binding to human interleukin-23 receptor incubated for 2 hrs by competitive binding ELISA
row,pIC50,SMILES
1,6.00 to 6.30,C[C@@H](O)[C@H](NC(=O)[C@@H](N)CS)C(=O)N[C@@H](CC(=O)O)C(=O)N[C@@H](Cc1c[nH]c2ccccc12)C(=O)N[C@@H](CCCCN)C(=O)N[C@@H](CS)C(=O)N[C@@H](Cc1ccc(O)cc1)C(=O)N[C@@H](Cc1c[nH]c2ccccc12)C(=O)N[C@@H](Cc1cnc[nH]1)C(=O)N[C@@H](CCC(=O)O)C(=O)N[C@@H](Cc1ccccc1)C(=O)NCC(N)=O (H-CTDWKCYWHEFG-NH2)
2,< 6.00,CC(=O)N[C@@H](CS)C(=O)N[C@@H](CCCNC(=N)N)C(=O)N[C@@H](CC(=O)O)C(=O)N[C@@H](Cc1c[nH]c2ccccc12)C(=O)N[C@@H](CCC(N)=O)C(=O)N[C@@H](CS)C(=O)N[C@@H](Cc1ccc(O)cc1)C(=O)N[C@@H](Cc1c[nH]c2ccccc12)C(=O)N[C@@H](CCCNC(=N)N)C(=O)N[C@H](CCCCN)C(=O)N[C@@H](Cc1ccccc1)C(=O)NCC(=O)NCCOCCC(=O)N[C@H](CCCCN)C(N)=O
3,< 6.00,CC(=O)N[C@@H](CS)C(=O)N[C@@H](CCC(N)=O)C(=O)N[C@H](C(=O)N[C@@H](Cc1c[nH]c2ccccc12)C(=O)N[C@@H](CCC(N)=O)C(=O)N[C@@H](CS)C(=O)N[C@@H](Cc1ccc(O)cc1)C(=O)N[C@@H](Cc1c[nH]c2ccccc12)C(=O)N[C@@H](CCCNC(=N)N)C(=O)N(C)[C@@H](CCCCN)C(=O)N[C@@H](CC(N)=O)C(=O)NCC(=O)NCCOCC(=O)N[C@H](CCCCN)C(N)=O)[C@@H](C)O
4,< 5.00,CC(=O)NCCCC[C@H](NC(=O)[C@](C)(CCCCN)NC(=O)[C@H](Cc1ccc2ccccc2c1)NC(=O)[C@H](Cc1ccc(-c2ccccc2)cc1)NC(=O)[C@@H](NC(=O)[C@H](CCC(N)=O)NC(=O)[C@H](Cc1c[nH]c2ccccc12)NC(=O)[C@@H](NC(=O)[C@H](CCC(N)=O)NC(=O)[C@@H](NC(C)=O)C(C)(C)S)[C@@H](C)O)C(C)(C)S)C(=O)N[C@@H](CC(N)=O)C(=O)NCC(N)=O
5,6.00 to 7.00,CC(=O)NC1CC/C=C\CC(C(=O)N[C@@H](Cc2ccc(O)cc2)C(=O)N[C@@H](Cc2c[nH]c3ccccc23)C(=O)N[C@@H](CCCNC(=N)N)C(=O)N[C@@H](CCCCN)C(=O)N[C@@H](Cc2ccccc2)C(=O)NCC(=O)NCCOCC(=O)N[C@H](CCCCN)C(N)=O)NC(=O)[C@H](CCC(N)=O)NC(=O)[C@H](Cc2c[nH]c3ccccc23)NC(=O)[C@H]([C@@H](C)O)NC(=O)[C@H](CCCNC(=N)N)NC1=O (some centres undefined)
6,5.00 to 6.00,CC(=O)N[C@@H](CS)C(=O)N[C@@H](C)C(=O)N[C@@H](CC(=O)O)C(=O)N[C@@H](Cc1c[nH]c2ccccc12)C(=O)N[C@H](C(=O)N[C@@H](CS)C(=O)N[C@@H](Cc1ccc(O)cc1)C(=O)N[C@@H](Cc1c[nH]c2ccccc12)C(=O)N[C@@H](Cc1cnc[nH]1)C(=O)N[C@H](C(=O)N[C@@H](CCCCNC(=O)COCC(=O)NCCCC[C@H](NC(=O)[C@@H](NC(=O)[C@H](Cc1cnc[nH]1)NC(=O)[C@H](Cc1c[nH]c2ccccc12)NC(=O)[C@H](Cc1ccc(O)cc1)NC(=O)[C@H](CS)NC(=O)[C@@H](NC(=O)[C@H](Cc1c[nH]c2ccccc12)NC(=O)[C@H](CC(=O)O)NC(=O)[C@H](C)NC(=O)[C@H](CS)NC(C)=O)C(C)C)[C@@H](C)O)C(=O)NCC(=O)O)C(=O)NCC(=O)O)[C@@H](C)O)C(C)C
7,< 5.00,CC(=O)N[C@H](CCCCNC(=O)COCC(=O)NCCCC[C@@H](NC(C)=O)C(=O)N[C@@H](CO)C(=O)N[C@@H](CS)C(=O)N[C@@H](C)C(=O)N[C@@H](CC(=O)O)C(=O)N[C@@H](Cc1c[nH]c2ccccc12)C(=O)N[C@H](C(=O)N[C@@H](CS)C(=O)N[C@@H](Cc1ccc(O)cc1)C(=O)N[C@@H](Cc1c[nH]c2ccccc12)C(=O)N[C@@H](Cc1cnc[nH]1)C(=O)N[C@H](C(=O)N[C@@H](Cc1ccccc1)C(=O)NCC(=O)O)[C@@H](C)O)C(C)C)C(=O)N[C@@H](CO)C(=O)N[C@@H](CS)C(=O)N[C@@H](C)C(=O)N[C@@H](CC(=O)O)C(=O)N[C@@H](Cc1c[nH]c2ccccc12)C(=O)N[C@H](C(=O)N[C@@H](CS)C(=O)N[C@@H](Cc1ccc(O)cc1)C(=O)N[C@@H](Cc1c[nH]c2ccccc12)C(=O)N[C@@H](Cc1cnc[nH]1)C(=O)N[C@H](C(=O)N[C@@H](Cc1ccccc1)C(=O)NCC(=O)O)[C@@H](C)O)C(C)C
8,< 5.52,CC(=O)NCCCC[C@H](NC(=O)[C@](C)(CCCCN)NC(=O)[C@H](CCC(=O)OCc1ccccc1)NC(=O)[C@H](Cc1ccc(OCCN)cc1)NC(=O)[C@@H]1CSCC[C@H](NC(C)=O)C(=O)N[C@@H](CN)C(=O)N[C@@H]([C@@H](C)O)C(=O)N[C@@H](Cc2c[nH]c3ccccc23)C(=O)N[C@@H](CCC(N)=O)C(=O)N1)C(=O)N[C@@H](CC(N)=O)C(=O)NCC(N)=O (Ac-[Abu(4-yl)][Dap]TWQC[AEF]E(OBn)[αMeK]K(Ac)NG-NH2; thioether 1-6)
9,< 6.00,C[C@H](N)C(=O)N[C@@H](C)C(=O)N[C@@H](CC(=O)O)C(=O)N[C@@H](Cc1c[nH]c2ccccc12)C(=O)N[C@@H](CS)C(=O)N[C@@H](C)C(=O)N[C@@H](Cc1ccc(O)cc1)C(=O)N[C@@H](Cc1c[nH]c2ccccc12)C(=O)N[C@@H](CS)C(=O)N[C@H](C(=O)N[C@@H](Cc1ccccc1)C(=O)NCC(N)=O)[C@@H](C)O (H-AADWCAYWCTFG-NH2)
10,< 6.00,CC(=O)N[C@@H](CS)C(=O)N[C@@H](C)C(=O)N[C@@H](CC(=O)O)C(=O)N[C@@H](Cc1c[nH]c2ccccc12)C(=O)N[C@H](C(=O)N[C@@H](CS)C(=O)N[C@@H](Cc1ccc(O)cc1)C(=O)N[C@@H](Cc1cccc2ccccc12)C(=O)N[C@@H](Cc1cnc[nH]1)C(=O)NCCC(=O)N[C@@H](Cc1ccccc1)C(=O)NCC(N)=O)C(C)C
11,< 6.00,CC(C)[C@H](NC(=O)[C@H](Cc1c[nH]c2ccccc12)NC(=O)[C@H](CC(=O)O)NC(=O)[C@H](C)NC(=O)[C@@H](N)CS)C(=O)N[C@@H](CS)C(=O)N[C@@H](Cc1ccc(O)cc1)C(=O)N[C@@H](Cc1c[nH]c2ccccc12)C(=O)N[C@@H](Cc1cnc[nH]1)C(=O)N[C@H](C(=O)N[C@@H](Cc1ccccc1)C(=O)NCC(=O)N[C@@H](CCCCN)C(=O)O)[C@@H](C)O
12,6.00 to 6.30,CC(=O)NCC(=O)NCC(=O)NCC(=O)N[C@@H](CCC(=O)O)C(=O)N[C@@H](CS)C(=O)N[C@@H](CCC(=O)O)C(=O)N[C@@H](CC(N)=O)C(=O)N[C@@H](Cc1c[nH]c2ccccc12)C(=O)N[C@@H](CCC(=O)O)C(=O)N[C@@H](CS)C(=O)N[C@@H](Cc1ccc(O)cc1)C(=O)N[C@@H](Cc1c[nH]c2ccccc12)C(=O)N[C@@H](Cc1cnc[nH]1)C(=O)N[C@H](C(=O)N[C@@H](Cc1ccccc1)C(=O)NCC(N)=O)[C@@H](C)O (Ac-GGGECENWECYWHTFG-NH2)
13,6.00 to 7.00,CC(=O)N[C@H]1CCSC[C@@H](C(=O)N[C@@H](Cc2ccc(C(N)=O)cc2)C(=O)N[C@@H](Cc2ccc3ccccc3c2)C(=O)NC(C)(C)C(=O)N[C@@H](CCC(=O)O)C(=O)N[C@@H](CC(N)=O)C(=O)NCC(N)=O)NC(=O)[C@H](CCC(N)=O)NC(=O)[C@H](Cc2c[nH]c3ccccc23)NC(=O)[C@H]([C@@H](C)O)NC(=O)[C@H](CCC(N)=O)NC1=O
14,7.40,CC(=O)N[C@@H](CS)C(=O)N[C@@H](CCCCN)C(=O)N[C@H](C(=O)N[C@@H](Cc1c[nH]c2ccccc12)C(=O)N[C@@H](CCC(N)=O)C(=O)N[C@@H](CS)C(=O)N[C@@H](Cc1ccc(O)cc1)C(=O)N[C@@H](Cc1c[nH]c2ccccc12)C(=O)N[C@@H](CCCNC(=N)N)C(=O)N[C@H](C(=O)N[C@@H](Cc1ccccc1)C(=O)NCC(=O)NCCOCC(=O)N[C@H](CCCCN)C(N)=O)C(C)C)[C@@H](C)O
15,< 6.00,CC(=O)N[C@@H](CS)C(=O)N[C@@H](C)C(=O)N[C@@H](CC(=O)O)C(=O)N[C@@H](Cc1c[nH]c2ccccc12)C(=O)N[C@H](C(=O)N[C@@H](CS)C(=O)N[C@@H](Cc1ccc(O)cc1)C(=O)N[C@@H](Cc1cccc2ccccc12)C(=O)N[C@@H](Cc1cnc[nH]1)C(=O)N[C@H](C)C(=O)N[C@@H](Cc1ccccc1)C(=O)NCC(N)=O)C(C)C
16,< 4.52,CC(=O)N[C@@H](CS)C(=O)N[C@@H](CCC(N)=O)C(=O)N[C@H](C(=O)N[C@@H](Cc1c[nH]c2ccccc12)C(=O)N[C@@H](CCC(N)=O)C(=O)N[C@@H](CS)C(=O)N[C@@H](Cc1ccc(O)cc1)C(=O)N[C@H](CC(=O)N[C@@H](CCCNC(=N)N)C(=O)N[C@H](C(=O)N[C@@H](CC(N)=O)C(=O)NCC(=O)NCCOCC(=O)N[C@H](CCCCN)C(N)=O)C(C)C)Cc1ccccc1)[C@@H](C)O
17,< 5.22,CCCCCCCCCCCCCCCC(=O)NCCCC[C@H](NC(=O)[C@H](CCC(=O)O)NC(=O)[C@H](CC(C)C)NC(=O)[C@H](Cc1c[nH]c2ccccc12)NC(=O)[C@H](Cc1ccc(O)cc1)NC(=O)[C@H](CS)NC(=O)[C@H](CCC(N)=O)NC(=O)[C@H](Cc1c[nH]c2ccccc12)NC(=O)[C@@H](NC(=O)[C@H](CCC(N)=O)NC(=O)[C@H](CS)NC(C)=O)[C@@H](C)O)C(=O)NCC(N)=O (Ac-CQTWQCYWLEK(Palmitoyl)G-NH2)
18,< 6.00,CC(C)[C@H](NC(=O)[C@H](Cc1c[nH]c2ccccc12)NC(=O)[C@H](CC(=O)O)NC(=O)[C@H](C)NC(=O)[C@@H](N)CS)C(=O)N[C@@H](CS)C(=O)N[C@@H](Cc1ccc(O)cc1)C(=O)N[C@@H](Cc1cccc2ccccc12)C(=O)N[C@@H](Cc1cnc[nH]1)C(=O)N[C@H](C(=O)N[C@@H](Cc1ccccc1)C(=O)O)[C@@H](C)O
19,< 6.00,CC(=O)NCCCC[C@H](NC(=O)[C@](C)(CCCCN)NC(=O)[C@H](Cc1ccc2ccccc2c1)NC(=O)[C@H](CCc1ccc(O)cc1)NC(=O)[C@@H]1CSCC[C@H](NC(C)=O)C(=O)N[C@@H](CCC(N)=O)C(=O)N[C@@H]([C@@H](C)O)C(=O)N[C@@H](Cc2c[nH]c3ccccc23)C(=O)N[C@@H](CCC(N)=O)C(=O)N1)C(=O)N[C@@H](CC(N)=O)C(=O)NCC(N)=O
